Among the data in patent EP0788498B1, “PHENYLOXAZOLIDINONE ANTIMICROBIALS” (priority 1994, dated 1996) are MIC values, retold here.

≈ marks a conversion by molar mass, not a printed value. Like-named read-outs stand apart in the source and are kept apart here.

In one test the test system is S. aureus UC® 9213. Description: Minimum inhibitory concentration (MIC) by agar dilution. To be noted: Staphylococcus aureus. In kind it is cell-based. An excerpt:
(§1) The oxazolidinone antibacterial agents of this invention have useful activity against a variety of organisms. The in vitro activity of compounds of this invention can be assessed by standard testing procedures such as the determination of minimum inhibitory concentration (MIC) by agar dilution as described in "Methods for Dilution Antimicrobial Susceptibility Tests for Bacteria That Grow Aerobically" (MFT) published Jan. 1983 by the National Committee for Clinical Laboratory Standards, 771 East Lancaster Avenue, Villanova, Pennsylvania 19084, USA. The activity of selected compounds of this invention against Staphylococcus aureus and Streptococcus pneumoniae are shown in Table 1.

A further test relates to S. pneumoniae UC® 9912. Described as above. In kind it is cell-based. To be noted: Streptococcus pneumoniae.
Source text: as §1

[1] abbreviates: UC9213, in vitro, agar dilution, strain UC® 9213, read-out: Minimum Inhibitory Concentration S. aureus UC® 9213.
Where [2] appears, read: UC9912, in vitro, agar dilution, strain UC® 9912, read-out: Minimum Inhibitory Concentration S. pneumoniae UC® 9912.

With `COC(=O)N[C@H]1CN(c2ccc(N3C[C@H](CNC(C)=O)OC3=O)cc2F)C[C@H]1C` (relative stereo) [Example 14], the MIC turned out to be 4 µg/mL (≈ 9.79 µM) with S. aureus UC® 9213 (setting [1]) and 1 µg/mL (≈ 2.45 µM) in the test with S. pneumoniae UC® 9912 (setting [2]).

With `CC(=O)NC[C@H]1CN(c2ccc(N3C[C@@H](C)[C@@H](NC(=O)CO)C3)c(F)c2)C(=O)O1` (relative stereo) [Example 15], the MIC in the test with S. aureus UC® 9213 (setting [1]) is 16 µg/mL (≈ 39.2 µM); in the test on S. pneumoniae UC® 9912 (setting [2]), 2 µg/mL (≈ 4.9 µM).

With `CC(=O)NC[C@H]1CN(c2ccc(N3C[C@@H](C)[C@@H](NS(C)(=O)=O)C3)c(F)c2)C(=O)O1` (relative stereo) [Example 16], the MIC turned out to be 8 µg/mL (≈ 18.7 µM) in the test with S. aureus UC® 9213 (setting [1]) and 1 µg/mL (≈ 2.33 µM) in the test on S. pneumoniae UC® 9912 (setting [2]).

With `COC1CN(c2ccc(N3C[C@H](CNC(C)=O)OC3=O)cc2F)C1` [Example 1, (S)-N-[[3-[3-fluoro-4-(3-methoxy-1-azetidinyl]phenyl]-2-oxo-5-oxazolidinyl]methyl]acetamide], the figures for the MIC with S. aureus UC® 9213 (setting [1]) and in the test with S. pneumoniae UC® 9912 (setting [2]) were 4 µg/mL (≈ 11.9 µM) and 2 µg/mL (≈ 5.93 µM), respectively.

Regarding `CC(=O)NC[C@H]1CN(c2ccc(N3CC(O)C3)c(F)c2)C(=O)O1` [Example 2, (S)-N-[[3-[3-fluoro-4-(3-hydroxy-1-azetidinyl)phenyl]-2-oxo-5-oxazolidinyl]methyl]acetamide], the MIC with S. aureus UC® 9213 (setting [1]) came out at 4 µg/mL (≈ 12.4 µM); in the test on S. pneumoniae UC® 9912 (setting [2]) it was 2 µg/mL (≈ 6.19 µM).

Take `CC(=O)NC[C@H]1CN(c2ccc(N3CC(N(C)CCF)C3)c(F)c2)C(=O)O1` [Example 3, (S)-N-[[3-[3-fluoro-4-[3-[N-(2-fluoroethyl)-N-methylamino]-1-azetidinyl]phenyl]-2-oxo-5-oxazolidinyl]methyl]acetamide]: the MIC is 16 µg/mL (≈ 41.8 µM) with S. aureus UC® 9213 (setting [1]) and 8 µg/mL (≈ 20.9 µM) in the test with S. pneumoniae UC® 9912 (setting [2]).

As for `CC(=O)NC[C@H]1CN(c2ccc(N3CC(=O)C3)c(F)c2)C(=O)O1` [Example 4, (S)-N-[[3-[3-fluoro-4-(3-oxo-1-azetidinyl)phenyl]-2-oxo-5-oxazolidinyl]methyl]acetamide], the MIC came to 1 µg/mL (≈ 3.11 µM) in the test on S. aureus UC® 9213 (setting [1]) and 0.5 µg/mL (≈ 1.56 µM) in the test on S. pneumoniae UC® 9912 (setting [2]).

Regarding `CON=C1CN(c2ccc(N3C[C@H](CNC(C)=O)OC3=O)cc2F)C1` [Example 5, (S)-N-[[3-[3-fluoro-4-[3-(methoxyimino)-1-azetidinyl]phenyl]-2-oxo-5-oxazolidinyl]methyl]acetamide], the MIC was found to be 4 µg/mL (≈ 11.4 µM) in the test on S. aureus UC® 9213 (setting [1]) and 1 µg/mL (≈ 2.85 µM) in the test on S. pneumoniae UC® 9912 (setting [2]).

Consider `COC1(C)CN(c2ccc(N3C[C@H](CNC(C)=O)OC3=O)cc2F)C1` [Example 6, (S)-N-[[3-[3-fluoro-4-(3-methoxy-3-methyl-1-azetidinyl)phenyl]-2-oxo-5-oxazolidinyl]methyl]acetamide], for which the MIC in the test with S. aureus UC® 9213 (setting [1]) amounted to 8 µg/mL (≈ 22.8 µM); in the test on S. pneumoniae UC® 9912 (setting [2]), 4 µg/mL (≈ 11.4 µM).

Regarding `CC(=O)NC[C@H]1CN(c2ccc(N3CC(C)(O)C3)c(F)c2)C(=O)O1` [Example 7, (S)-N-[[3-[3-fluoro-4-(3-hydroxy-3-methyl-1-azetidinyl)phenyl]-2 oxo-5-oxazolidinyl]methyl]acetamide], the MIC in the test with S. aureus UC® 9213 (setting [1]) is 8 µg/mL (≈ 23.7 µM); in the test on S. pneumoniae UC® 9912 (setting [2]), 2 µg/mL (≈ 5.93 µM).

As for `CC(=O)NC[C@H]1CN(c2ccc(N3C[C@@H]4OC(C)(C)O[C@@H]4C3)c(F)c2)C(=O)O1` [Example 8, (S)-N-[[3-[4-(1-Aza-5,5-dimethyl-4,6-dioxabicyclo[3,3,0]octan-1-yl)-3-fluorophenyl]-2-oxo-5-oxazolidinyl]methyl]acetamide], the MIC amounted to 32 µg/mL (≈ 81.3 µM) with S. aureus UC® 9213 (setting [1]) and 8 µg/mL (≈ 20.3 µM) in the test with S. pneumoniae UC® 9912 (setting [2]).

Consider `CC(=O)NC[C@H]1CN(c2ccc(N3C[C@@H](O)[C@@H](O)C3)c(F)c2)C(=O)O1` [Example 9, (S)-N-[[3-[4-(3,4-cis-dihydroxypyrrolidinyl)-3-fluorophenyl]-2-oxo-5-oxazolidinyl]methyl]acetamide], for which the MIC with S. aureus UC® 9213 (setting [1]) worked out at 8 µg/mL (≈ 22.6 µM); with S. pneumoniae UC® 9912 (setting [2]), 2 µg/mL (≈ 5.66 µM).

Take `CC(=O)NC[C@H]1CN(c2ccc(N3CCC(O)C3)c(F)c2)C(=O)O1` (stereo partly drawn) [Example 10, (S)-N-[[3-[4-(3-hydroxypyrrolidinyl)-3-fluorophenyl]-2-oxo-5-oxazolidinyl]methyl]acetamide]: the MIC came out at 2 µg/mL (≈ 5.93 µM) in the test on S. aureus UC® 9213 (setting [1]) and 1 µg/mL (≈ 2.96 µM) in the test on S. pneumoniae UC® 9912 (setting [2]).

In the case of `CC(=O)NC[C@H]1CN(c2ccc(N3CCC(=O)C3)c(F)c2)C(=O)O1` [Example 11, (S)-N-((3-(3-fluoro-4-(3-oxopyrrolidinyl)phenyl)-2-oxo-5-oxazolidinyl)methyl)acetamide], the results for the MIC with S. aureus UC® 9213 (setting [1]) and in the test on S. pneumoniae UC® 9912 (setting [2]) were 4 µg/mL (≈ 11.9 µM) and 2 µg/mL (≈ 5.96 µM), respectively.

Turning to `CC(=O)NC[C@H]1CN(c2ccc(N3CCC(NC(=O)COCc4ccccc4)C3)c(F)c2)C(=O)O1` (stereo partly drawn) [Example 12, (S)-N-((3-(3-Fluoro-4-(3-(phenylmethoxyacetylamino)pyrrolidinyl)phenyl)-2-oxo-5-oxazolidinyl)methyl)acetamide], the results for the MIC in the test with S. aureus UC® 9213 (setting [1]) and in the test with S. pneumoniae UC® 9912 (setting [2]) were 8 µg/mL (≈ 16.5 µM) and 2 µg/mL (≈ 4.13 µM), respectively.

With `CC(=O)NC[C@H]1CN(c2ccc(N3CCC(NC(=O)CO)C3)c(F)c2)C(=O)O1` (stereo partly drawn) [Example 13, (S)-N-((3-(3-Fluoro-4-(3-(hydroxyacetylamino)pyrrolidinyl)phenyl)-2-oxo-5-oxazolidinyl)methyl)acetamide], the MIC worked out at 16 µg/mL (≈ 40.6 µM) with S. aureus UC® 9213 (setting [1]) and 2 µg/mL (≈ 5.07 µM) in the test with S. pneumoniae UC® 9912 (setting [2]).

With `CN[C@H](CC(C)C)C(=O)N[C@H]1C(=O)N[C@@H](CC(N)=O)C(=O)N[C@H]2C(=O)N[C@H]3C(=O)N[C@H](C(=O)N[C@H](C(=O)O)c4cc(O)cc(O)c4-c4cc3ccc4O)[C@H](O)c3ccc(c(Cl)c3)Oc3cc2cc(c3O[C@@H]2O[C@H](CO)[C@@H](O)[C@H](O)[C@H]2O[C@H]2C[C@](C)(N)[C@H](O)[C@H](C)O2)Oc2ccc(cc2Cl)[C@H]1O` [vancomycin, reference compound], the MIC in the test with S. aureus UC® 9213 (UC9213, read-out: Minimum Inhibitory Concentration S. aureus UC® 9213) came to 1 µg/mL (≈ 0.69 µM); with S. pneumoniae UC® 9912 (UC9912, read-out: Minimum Inhibitory Concentration S. pneumoniae UC® 9912), 0.5 µg/mL (≈ 0.345 µM).
